Test results: ChEMBL document CHEMBL1201862, “PubChem BioAssay data set” (2004)
Active and inactive are the calls of the source.

Columns and labels:
[1] = biological target: T1, Insulin-degrading enzyme (Homo sapiens, UniProt P14735); experiment: recombinant IDE activation, cell-free – biochemical, fluorescence polarization, counter-screen for IDE activator project, dose response (AID 588681)
T1 sequence (P14735 whole entry): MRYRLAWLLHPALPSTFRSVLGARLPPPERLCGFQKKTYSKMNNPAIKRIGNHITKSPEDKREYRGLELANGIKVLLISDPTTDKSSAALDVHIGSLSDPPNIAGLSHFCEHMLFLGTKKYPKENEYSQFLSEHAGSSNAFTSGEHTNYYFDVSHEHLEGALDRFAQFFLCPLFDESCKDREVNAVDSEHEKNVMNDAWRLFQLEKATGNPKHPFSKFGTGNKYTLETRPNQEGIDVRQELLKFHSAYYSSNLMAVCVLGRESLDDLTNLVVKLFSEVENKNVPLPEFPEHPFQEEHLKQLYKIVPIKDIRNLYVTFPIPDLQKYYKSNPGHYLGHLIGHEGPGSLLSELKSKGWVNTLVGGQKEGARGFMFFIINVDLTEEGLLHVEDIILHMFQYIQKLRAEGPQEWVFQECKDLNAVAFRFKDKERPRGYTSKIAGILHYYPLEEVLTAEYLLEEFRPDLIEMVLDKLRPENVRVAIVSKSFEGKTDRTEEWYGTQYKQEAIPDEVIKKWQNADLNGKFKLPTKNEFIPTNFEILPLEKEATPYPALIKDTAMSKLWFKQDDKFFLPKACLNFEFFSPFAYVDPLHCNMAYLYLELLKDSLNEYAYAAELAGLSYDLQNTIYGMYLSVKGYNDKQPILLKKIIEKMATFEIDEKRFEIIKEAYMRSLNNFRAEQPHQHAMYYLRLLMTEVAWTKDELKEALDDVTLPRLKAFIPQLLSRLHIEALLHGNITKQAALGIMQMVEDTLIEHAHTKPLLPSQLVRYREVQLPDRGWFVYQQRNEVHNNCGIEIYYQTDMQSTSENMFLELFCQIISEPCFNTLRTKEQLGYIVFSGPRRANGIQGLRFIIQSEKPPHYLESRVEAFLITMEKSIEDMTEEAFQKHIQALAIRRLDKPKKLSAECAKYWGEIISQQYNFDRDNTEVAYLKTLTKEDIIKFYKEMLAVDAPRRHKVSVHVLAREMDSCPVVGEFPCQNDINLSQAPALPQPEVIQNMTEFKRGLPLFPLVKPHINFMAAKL

[2] = biological target: T2, Multidrug resistance protein CDR2 (Candida albicans (strain SC5314 / ATCC MYA-2876) (Yeast), UniProt P78595); experiment: inhibition of Nile Red efflux via Candida CDR2 – S. cerevisiae AD1-8u, singleplex, Cherry Pick1 hits, dose response (AID 588604); assay type: functional
T2 sequence (P78595 whole entry): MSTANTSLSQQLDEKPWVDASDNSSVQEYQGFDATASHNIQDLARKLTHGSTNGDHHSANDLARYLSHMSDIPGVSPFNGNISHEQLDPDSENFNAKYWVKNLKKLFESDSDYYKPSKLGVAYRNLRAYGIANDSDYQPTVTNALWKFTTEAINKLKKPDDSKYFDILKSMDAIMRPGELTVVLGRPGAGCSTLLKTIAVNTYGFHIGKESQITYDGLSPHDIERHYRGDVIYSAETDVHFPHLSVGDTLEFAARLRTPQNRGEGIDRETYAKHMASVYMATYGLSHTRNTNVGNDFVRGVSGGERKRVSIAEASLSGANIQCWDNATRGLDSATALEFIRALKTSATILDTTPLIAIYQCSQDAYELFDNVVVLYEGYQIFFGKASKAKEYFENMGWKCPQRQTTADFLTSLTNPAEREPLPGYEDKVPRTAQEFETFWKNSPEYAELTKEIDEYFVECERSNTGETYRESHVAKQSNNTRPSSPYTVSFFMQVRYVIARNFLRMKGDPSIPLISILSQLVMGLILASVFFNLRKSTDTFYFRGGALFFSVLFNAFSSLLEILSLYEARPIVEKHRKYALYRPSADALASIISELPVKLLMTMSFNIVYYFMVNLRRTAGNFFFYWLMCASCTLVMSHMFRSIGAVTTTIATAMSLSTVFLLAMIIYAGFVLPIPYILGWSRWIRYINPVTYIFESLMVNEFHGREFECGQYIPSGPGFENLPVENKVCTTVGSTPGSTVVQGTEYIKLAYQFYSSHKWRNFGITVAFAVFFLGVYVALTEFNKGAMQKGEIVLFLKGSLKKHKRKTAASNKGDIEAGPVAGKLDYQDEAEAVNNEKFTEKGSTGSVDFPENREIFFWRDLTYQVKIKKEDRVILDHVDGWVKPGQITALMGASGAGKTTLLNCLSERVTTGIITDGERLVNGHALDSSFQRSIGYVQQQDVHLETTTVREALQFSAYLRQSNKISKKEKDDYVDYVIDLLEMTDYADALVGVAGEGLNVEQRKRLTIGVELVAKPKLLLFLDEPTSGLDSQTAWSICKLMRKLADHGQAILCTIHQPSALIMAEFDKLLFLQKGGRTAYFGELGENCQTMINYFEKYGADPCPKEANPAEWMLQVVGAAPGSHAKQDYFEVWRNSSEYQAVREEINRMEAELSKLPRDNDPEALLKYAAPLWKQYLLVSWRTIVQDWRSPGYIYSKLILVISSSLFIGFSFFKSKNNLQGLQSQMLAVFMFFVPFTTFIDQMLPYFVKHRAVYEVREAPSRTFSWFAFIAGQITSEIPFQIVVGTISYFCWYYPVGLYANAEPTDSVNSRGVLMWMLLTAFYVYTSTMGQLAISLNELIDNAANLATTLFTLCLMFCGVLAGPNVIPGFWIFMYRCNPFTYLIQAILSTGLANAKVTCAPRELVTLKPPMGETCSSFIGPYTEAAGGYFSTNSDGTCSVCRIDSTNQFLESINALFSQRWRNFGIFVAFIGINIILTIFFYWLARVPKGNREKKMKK

[3] = biological target: Melanocortin receptor 4 (Homo sapiens, UniProt P32245); assay type: functional, cell-based;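 note: Cell-based assay with luminescence read-out, confirmatory dose-response testing for agonist activity of biased ligands at MC4R; human U2OS cells with tagged receptor and beta-arrestin; potency of agonists that increase receptor coupling to beta-arrestin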
[4] = biological target: T1, Insulin-degrading enzyme; experiment: cellular IDE activation of Abeta substrate cleavage – fluorescence polarization, HEK cells, dose response (AID 588439); assay type: functional, cell-based
[5] = biological target: T2, Multidrug resistance protein CDR2; experiment: blockers of Nile Red efflux by Candida CDR2 – S. cerevisiae AD1-8u, singleplex, Cherry Pick2 set, dose response (AID 623994); assay type: functional; conditions: read-out: EC50_MICROM
[6] = test system: HEK293; experiment: membrane integrity loss in HEK cells – cell-based, fluorescence, cytotoxicity control for IDE activator project, dose response (AID 588440); assay type: functional; conditions: Homo sapiens;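 note: cytotoxicity by LDH release measuring loss of membrane integrity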
[7] = test system: HEK293; experiment: optical interference in Abeta FP readout, dose response, artefact control for IDE activator project, biochemical, fluorescence polarization (AID 588442); assay type: functional, cell-based; conditions: Homo sapiens
[8] = biological target: T3, Neuropeptides B/W receptor type 1 (Homo sapiens, UniProt P48145); experiment: human NPBW1 receptor blockade, IC50 – cell-based, fluorescence, dose response, set 5, late-stage follow-up (AID 588566); assay type: functional
T3 sequence (P48145 whole entry): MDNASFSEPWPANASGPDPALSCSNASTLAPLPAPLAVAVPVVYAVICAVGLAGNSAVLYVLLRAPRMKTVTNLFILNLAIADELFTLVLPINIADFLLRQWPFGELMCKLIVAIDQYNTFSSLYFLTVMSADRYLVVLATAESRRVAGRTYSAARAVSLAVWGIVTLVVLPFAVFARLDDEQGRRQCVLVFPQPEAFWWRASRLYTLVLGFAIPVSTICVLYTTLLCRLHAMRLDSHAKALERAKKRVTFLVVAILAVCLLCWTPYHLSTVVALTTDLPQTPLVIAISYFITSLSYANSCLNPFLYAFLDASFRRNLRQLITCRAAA

[9] = biological target: Melanin-concentrating hormone receptor 1 (Homo sapiens, UniProt Q99705); experiment: Late-stage fluorescence-based counterscreen for antagonists of the G-protein coupled receptor 7 (GPR7): cell-based dose response assay to identify antagonists of the melanin-concentrating hormone receptor 1 (MCHR1) Set 5.; assay type: functional
[10] = biological target: Cyclin-dependent kinase 5 (Homo sapiens, UniProt Q00535); assay type: functional;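 note: CDK5 measured as one member of a kinase profiling panel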
[11] = biological target: Cyclin-dependent kinase 7 (Homo sapiens, UniProt P50613); assay type: functional;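 note: value comes from a kinome-wide kinase profiling panel in which CDK7 is one member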
[12] = biological target: Receptor-type tyrosine-protein kinase FLT3 (Homo sapiens, UniProt P36888); assay type: functional;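 note: FLT3 was tested as one member of a kinome-wide kinase panel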
[13] = biological target: Serine/threonine-protein kinase PAK 4 (Homo sapiens, UniProt O96013); assay type: functional;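 note: value obtained within a kinome profiling panel in which PAK4 was one of the panel members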
[14] = biological target: Serine/threonine-protein kinase pim-1 (Homo sapiens, UniProt P11309); assay type: functional
[15] = biological target: Insulin-like growth factor 1 receptor (Homo sapiens, UniProt P08069); experiment: Navigating the Kinome. Panel member name: IGF1R; assay type: functional
[16] = biological target: BDNF/NT-3 growth factors receptor (Homo sapiens, UniProt Q16620); assay type: functional;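 note: NTRK2 measured as one member of a broad kinome-wide kinase profiling panel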
Chain of BDNF/NT-3 growth factors receptor (Q16620 whole entry): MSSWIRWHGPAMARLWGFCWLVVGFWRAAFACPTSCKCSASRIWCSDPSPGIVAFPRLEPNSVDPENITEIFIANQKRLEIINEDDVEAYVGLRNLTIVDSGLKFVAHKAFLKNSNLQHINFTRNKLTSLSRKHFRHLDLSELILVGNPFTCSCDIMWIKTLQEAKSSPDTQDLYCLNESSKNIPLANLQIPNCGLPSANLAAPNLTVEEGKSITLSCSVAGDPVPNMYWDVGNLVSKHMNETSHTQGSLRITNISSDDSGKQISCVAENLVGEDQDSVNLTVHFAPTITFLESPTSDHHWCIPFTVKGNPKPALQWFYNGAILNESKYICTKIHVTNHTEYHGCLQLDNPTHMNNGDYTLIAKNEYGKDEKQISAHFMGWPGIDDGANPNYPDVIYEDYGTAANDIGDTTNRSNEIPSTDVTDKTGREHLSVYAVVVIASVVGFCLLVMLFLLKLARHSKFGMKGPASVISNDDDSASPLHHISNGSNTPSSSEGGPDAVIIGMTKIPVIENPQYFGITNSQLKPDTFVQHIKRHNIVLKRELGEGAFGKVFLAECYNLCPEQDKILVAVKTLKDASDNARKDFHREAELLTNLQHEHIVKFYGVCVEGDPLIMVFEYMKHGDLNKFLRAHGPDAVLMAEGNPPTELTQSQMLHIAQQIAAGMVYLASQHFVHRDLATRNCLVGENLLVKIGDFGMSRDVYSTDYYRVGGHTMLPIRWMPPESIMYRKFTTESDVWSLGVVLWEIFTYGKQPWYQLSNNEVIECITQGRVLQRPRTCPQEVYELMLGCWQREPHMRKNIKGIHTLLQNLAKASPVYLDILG

[17] = biological target: Glycogen synthase kinase-3 alpha (Homo sapiens, UniProt P49840); assay type: functional;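 note: GSK3A result taken from a broad kinome-wide kinase panel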
Chain of Glycogen synthase kinase-3 alpha (P49840 whole entry): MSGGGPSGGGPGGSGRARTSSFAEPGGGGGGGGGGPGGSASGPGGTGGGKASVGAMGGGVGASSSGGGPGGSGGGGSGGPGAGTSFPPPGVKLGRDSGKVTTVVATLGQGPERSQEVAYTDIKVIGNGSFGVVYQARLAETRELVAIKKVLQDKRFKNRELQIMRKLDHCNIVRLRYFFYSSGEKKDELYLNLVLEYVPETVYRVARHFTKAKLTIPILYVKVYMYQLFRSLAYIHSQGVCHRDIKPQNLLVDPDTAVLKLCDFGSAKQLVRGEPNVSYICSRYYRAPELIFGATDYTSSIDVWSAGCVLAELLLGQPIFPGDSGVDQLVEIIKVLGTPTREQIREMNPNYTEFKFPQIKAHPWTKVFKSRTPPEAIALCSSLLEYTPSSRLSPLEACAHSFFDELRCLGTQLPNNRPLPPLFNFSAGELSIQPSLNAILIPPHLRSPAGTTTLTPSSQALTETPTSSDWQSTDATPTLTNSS

[18] = biological target: Cyclin-dependent kinase 8 (Homo sapiens, UniProt P49336); experiment: Navigating the Kinome. Panel member name: CDK8; assay type: functional
[19] = biological target: Serine/threonine-protein kinase TBK1 (Homo sapiens, UniProt Q9UHD2); experiment: Navigating the Kinome. Panel member name: TBK1; assay type: functional
[20] = biological target: Leukocyte tyrosine kinase receptor (Homo sapiens, UniProt P29376); experiment: Navigating the Kinome. Panel member name: LTK; assay type: functional
[21] = biological target: Aurora kinase B (Homo sapiens, UniProt Q96GD4); assay type: functional
[22] = biological target: Vascular endothelial growth factor receptor 2 (Homo sapiens, UniProt P35968); assay type: functional
[23] = biological target: Mitogen-activated protein kinase 8 (Homo sapiens, UniProt P45983); assay type: functional;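 note: value comes from one member of a kinome-wide kinase profiling panel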
[24] = biological target: Calcium/calmodulin-dependent protein kinase type II subunit alpha (Homo sapiens, UniProt Q9UQM7); experiment: Navigating the Kinome. Panel member name: CAMK2A; assay type: functional
[25] = biological target: Serine/threonine-protein kinase Nek2 (Homo sapiens, UniProt P51955); assay type: functional
[26] = biological target: Serine/threonine-protein kinase TAO1 (Homo sapiens, UniProt Q7L7X3); assay type: functional
[27] = biological target: LIM domain kinase 1 (Homo sapiens, UniProt P53667); experiment: Navigating the Kinome. Panel member name: LIMK1; assay type: functional
[28] = biological target: Dual specificity mitogen-activated protein kinase kinase 2 (Homo sapiens, UniProt P36507); experiment: Navigating the Kinome. Panel member name: MAP2K2; assay type: functional
[29] = biological target: Tyrosine-protein kinase Fyn (Homo sapiens, UniProt P06241); assay type: functional
[30] = biological target: Mitogen-activated protein kinase kinase kinase kinase 2 (Homo sapiens, UniProt Q12851); assay type: functional;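 note: measured as one member of a kinome-wide kinase panel, with MAP4K2 as the panel entry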
[31] = biological target: Mitogen-activated protein kinase 14 (Homo sapiens, UniProt Q16539); assay type: functional;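 note: part of a kinome-wide panel, MAPK14 entry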
[32] = biological target: 5'-AMP-activated protein kinase catalytic subunit alpha-1 (Homo sapiens, UniProt Q13131); assay type: functional
[33] = biological target: Serine/threonine-protein kinase Chk1 (Homo sapiens, UniProt O14757); assay type: functional;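 note: measured as one member of a kinome-wide kinase profiling panel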
[34] = biological target: Hepatocyte growth factor receptor (Homo sapiens, UniProt P08581); assay type: functional;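 note: kinase panel profiling across the kinome, with MET as the panel member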
[35] = biological target: Macrophage colony-stimulating factor 1 receptor (Homo sapiens, UniProt P07333); assay type: functional;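 note: value comes from the Navigating the Kinome screening panel, CSF1R member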
[36] = biological target: Serine/threonine-protein kinase D3 (Homo sapiens, UniProt O94806); assay type: functional;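 note: determined within a kinase panel screen, with PRKCN as the panel member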
[37] = biological target: Protein kinase C theta type (Homo sapiens, UniProt Q04759); experiment: Navigating the Kinome. Panel member name: PRKCQ; assay type: functional
[38] = biological target: Activin receptor type-1 (Homo sapiens, UniProt Q04771); experiment: Navigating the Kinome. Panel member name: ACVR1; assay type: functional
[39] = biological target: Vascular endothelial growth factor receptor 1 (Homo sapiens, UniProt P17948); assay type: functional;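 note: measured within a kinome-wide profiling panel, FLT1 as the panel member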
[40] = biological target: High affinity nerve growth factor receptor (Homo sapiens, UniProt P04629); assay type: functional;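 note: NTRK1 tested as one member of a kinome-wide profiling panel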
[41] = biological target: Fibroblast growth factor receptor 1 (Homo sapiens, UniProt P11362); assay type: functional
[42] = biological target: Platelet-derived growth factor receptor alpha (Homo sapiens, UniProt P16234); experiment: Navigating the Kinome. Panel member name: PDGFRA; assay type: functional
[43] = biological target: Activated CDC42 kinase 1 (Homo sapiens, UniProt Q07912); experiment: Navigating the Kinome. Panel member name: ACK1; assay type: functional
[44] = biological target: Dual specificity tyrosine-phosphorylation-regulated kinase 1B (Homo sapiens, UniProt Q9Y463); experiment: Navigating the Kinome. Panel member name: DYRK1B; assay type: functional
[45] = biological target: Inhibitor of nuclear factor kappa-B kinase subunit epsilon (Homo sapiens, UniProt Q14164); experiment: Navigating the Kinome. Panel member name: IKBKE; assay type: functional
[46] = biological target: Death-associated protein kinase 3 (Homo sapiens, UniProt O43293); assay type: functional;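 note: measured as one member of a kinome-wide profiling panel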
[47] = biological target: Dual specificity mitogen-activated protein kinase kinase 1 (Homo sapiens, UniProt Q02750); experiment: Navigating the Kinome. Panel member name: MAP2K1; assay type: functional
[48] = biological target: cAMP-dependent protein kinase catalytic subunit PRKX (Homo sapiens, UniProt P51817); assay type: functional
[49] = biological target: Tyrosine-protein kinase Lck (Homo sapiens, UniProt P06239); assay type: functional;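 note: lck was assayed as one member of a kinase panel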
[50] = biological target: G protein-coupled receptor kinase 5 (Homo sapiens, UniProt P34947); experiment: Navigating the Kinome. Panel member name: GPRK5; assay type: functional
[51] = biological target: Rho-associated protein kinase 1 (Homo sapiens, UniProt Q13464); assay type: functional;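 note: measured within a broad kinome-wide panel profiling many kinases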
[52] = biological target: Leucine-rich repeat serine/threonine-protein kinase 2 (Homo sapiens, UniProt Q5S007); assay type: functional;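 note: value from a broad kinome-wide panel profiling study in which LRRK2 was one of the kinases tested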
[53] = biological target: Tyrosine-protein kinase ABL1 (Homo sapiens, UniProt P00519); assay type: functional
[54] = biological target: ALK tyrosine kinase receptor (Homo sapiens, UniProt Q9UM73); assay type: functional;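 note: ALK tested as one member of a kinase panel screen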
[55] = biological target: Tyrosine-protein kinase JAK2 (Homo sapiens, UniProt O60674); assay type: functional;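 note: JAK2 tested as one member of a kinase panel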
Chain of Tyrosine-protein kinase JAK2 (O60674 whole entry): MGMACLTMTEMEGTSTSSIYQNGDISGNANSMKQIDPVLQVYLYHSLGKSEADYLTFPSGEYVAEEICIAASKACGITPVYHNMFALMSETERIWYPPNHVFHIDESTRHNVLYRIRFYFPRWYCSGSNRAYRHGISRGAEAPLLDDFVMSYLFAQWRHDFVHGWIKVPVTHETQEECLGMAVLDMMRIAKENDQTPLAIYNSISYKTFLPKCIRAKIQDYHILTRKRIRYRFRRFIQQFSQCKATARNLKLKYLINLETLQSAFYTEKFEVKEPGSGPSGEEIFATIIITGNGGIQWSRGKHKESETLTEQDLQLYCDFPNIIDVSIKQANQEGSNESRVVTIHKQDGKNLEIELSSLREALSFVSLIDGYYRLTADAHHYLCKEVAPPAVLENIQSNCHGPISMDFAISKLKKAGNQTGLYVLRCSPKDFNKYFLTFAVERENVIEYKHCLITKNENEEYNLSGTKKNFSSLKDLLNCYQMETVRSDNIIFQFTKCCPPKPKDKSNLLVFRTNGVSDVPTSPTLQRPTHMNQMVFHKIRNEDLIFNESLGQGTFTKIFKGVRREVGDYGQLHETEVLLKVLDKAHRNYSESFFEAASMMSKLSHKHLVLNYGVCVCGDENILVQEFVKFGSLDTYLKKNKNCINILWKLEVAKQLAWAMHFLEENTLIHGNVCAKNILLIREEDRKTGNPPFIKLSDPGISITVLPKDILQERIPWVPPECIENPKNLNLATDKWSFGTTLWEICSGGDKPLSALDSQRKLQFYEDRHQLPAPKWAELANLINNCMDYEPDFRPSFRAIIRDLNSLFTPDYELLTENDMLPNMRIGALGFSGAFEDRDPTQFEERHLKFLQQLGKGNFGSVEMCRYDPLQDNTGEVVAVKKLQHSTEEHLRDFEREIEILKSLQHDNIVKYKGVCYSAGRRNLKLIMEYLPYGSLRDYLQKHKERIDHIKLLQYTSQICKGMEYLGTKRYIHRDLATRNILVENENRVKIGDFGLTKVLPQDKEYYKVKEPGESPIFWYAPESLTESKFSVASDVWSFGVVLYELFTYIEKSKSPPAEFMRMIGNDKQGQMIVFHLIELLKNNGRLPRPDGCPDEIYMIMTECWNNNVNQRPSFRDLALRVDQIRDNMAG

[56] = biological target: Macrophage-stimulating protein receptor (Homo sapiens, UniProt Q04912); experiment: Navigating the Kinome. Panel member name: MST1R; assay type: functional
[57] = biological target: Dual specificity protein kinase CLK2 (Homo sapiens, UniProt P49760); assay type: functional
[58] = biological target: Dual specificity protein kinase CLK4 (Homo sapiens, UniProt Q9HAZ1); assay type: functional
Chain of Dual specificity protein kinase CLK4 (Q9HAZ1 whole entry): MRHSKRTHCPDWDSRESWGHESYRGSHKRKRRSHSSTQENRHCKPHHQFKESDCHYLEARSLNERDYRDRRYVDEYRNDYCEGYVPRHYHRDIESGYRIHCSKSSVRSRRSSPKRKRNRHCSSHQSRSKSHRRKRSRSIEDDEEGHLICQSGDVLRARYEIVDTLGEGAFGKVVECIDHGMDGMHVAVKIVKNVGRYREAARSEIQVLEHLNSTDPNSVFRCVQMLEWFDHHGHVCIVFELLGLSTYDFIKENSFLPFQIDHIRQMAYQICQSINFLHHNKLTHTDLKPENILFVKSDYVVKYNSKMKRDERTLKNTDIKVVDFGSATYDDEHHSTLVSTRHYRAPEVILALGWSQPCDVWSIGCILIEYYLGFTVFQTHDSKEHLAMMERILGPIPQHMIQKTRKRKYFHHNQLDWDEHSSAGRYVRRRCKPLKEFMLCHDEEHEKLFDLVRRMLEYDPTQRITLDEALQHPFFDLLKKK

[59] = biological target: Glycogen synthase kinase-3 beta (Homo sapiens, UniProt P49841); assay type: functional;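 note: value comes from a broad kinome profiling panel, with GSK3B as the panel member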
[60] = biological target: Tyrosine-protein kinase receptor TYRO3 (Homo sapiens, UniProt Q06418); assay type: functional;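 note: TYRO3 value obtained as one member of a kinome-wide profiling panel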
[61] = biological target: Tyrosine-protein kinase JAK3 (Homo sapiens, UniProt P52333); assay type: functional
[62] = biological target: Mitogen-activated protein kinase 9 (Homo sapiens, UniProt P45984); assay type: functional;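 note: value from a kinome panel profiling assay, MAPK9 panel entry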
Chain of Mitogen-activated protein kinase 9 (P45984 whole entry): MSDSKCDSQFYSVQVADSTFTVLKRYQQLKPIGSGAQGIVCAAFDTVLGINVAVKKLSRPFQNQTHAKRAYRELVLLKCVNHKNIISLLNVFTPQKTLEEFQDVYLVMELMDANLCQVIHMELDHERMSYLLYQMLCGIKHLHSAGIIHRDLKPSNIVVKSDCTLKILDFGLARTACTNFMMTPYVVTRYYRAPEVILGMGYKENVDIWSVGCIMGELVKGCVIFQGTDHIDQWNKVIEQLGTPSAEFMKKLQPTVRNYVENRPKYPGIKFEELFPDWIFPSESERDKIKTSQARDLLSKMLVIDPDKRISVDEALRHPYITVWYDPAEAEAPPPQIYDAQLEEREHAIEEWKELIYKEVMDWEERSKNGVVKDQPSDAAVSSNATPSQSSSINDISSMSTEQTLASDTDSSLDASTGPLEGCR

Cc1ccc2sc(N(CCCN(C)C)C(=O)c3ccc(Br)s3)nc2c1C
active: EC50 [2] 10.3 µM | EC50 [5] 50.5 µM
inactive: EC50 [1] > 54.7 µM | EC50 [3] > 89.2 µM | EC50 [4] 20.1 µM | IC50 [6] 35.3 µM | EC50 [7] > 54.7 µM

Cc1ccc(Oc2c(Cl)cnn(Cc3cccc4ccccc34)c2=O)cc1
active: IC50 [8] 2.57 µM | IC50 [9] 8.23 µM

Cc1cc(OCc2ccc(Cl)c(Cl)c2)ccc1CN1CC(C(=O)O)C1
inactive: Ki [10] > 3.16 µM | Ki [11] > 3.98 µM | Ki [12] > 3.16 µM | Ki [13] > 5.01 µM | Ki [14] > 6.31 µM | Ki [15] > 2.51 µM | Ki [16] > 3.98 µM | Ki [17] > 3.98 µM | Ki [18] > 3.98 µM | Ki [19] > 3.16 µM | Ki [20] > 2.51 µM | Ki [21] > 3.98 µM | Ki [22] > 2.51 µM | Ki [23] > 5.01 µM | Ki [24] > 3.98 µM | Ki [25] > 3.16 µM | Ki [26] > 6.31 µM | Ki [27] > 3.16 µM | Ki [28] > 3.98 µM | Ki [29] > 6.31 µM | Ki [30] > 2.51 µM | Ki [31] > 3.98 µM | Ki [32] > 3.16 µM | Ki [33] > 3.16 µM | Ki [34] > 2.51 µM | Ki [35] > 2.51 µM | Ki [36] > 3.98 µM | Ki [37] > 2.51 µM | Ki [38] > 3.98 µM | Ki [39] > 3.98 µM | Ki [40] > 3.16 µM | Ki [41] > 3.98 µM | Ki [43] > 3.98 µM | Ki [44] > 2.51 µM | Ki [45] > 3.16 µM | Ki [46] > 5.01 µM | Ki [47] > 3.16 µM | Ki [48] > 3.16 µM | Ki [49] > 6.31 µM | Ki [50] > 3.98 µM | Ki [52] > 2.51 µM | Ki [53] > 2.51 µM | Ki [54] > 6.31 µM | Ki [55] > 2.51 µM | Ki [56] > 3.98 µM | Ki [57] > 3.98 µM | Ki [58] > 2.51 µM | Ki [59] > 3.98 µM | Ki [60] > 3.16 µM | Ki [61] > 5.01 µM | Ki [62] > 3.98 µM
active: Ki [42] 0.2 µM | Ki [51] 3.16 µM
